Consider 42 molecules from ChEMBL document CHEMBL4007485, “Examining the structure-activity relationship of benzopyran-based inhibitors of the hypoxia inducible factor-1 pathway” (Bioorg Med Chem Lett, 2017).

Each structure is given as a SMILES string. Some results are limits rather than exact numbers.

Tested on in the first test: not listed separately
Briefly: Inhibition of HIF-1 pathway in human LN229 cells harboring HRE-AP by alkaline phosphatase reporter gene assay. It counts as cell-based. The conditions noted are these: LN-229. A general note: In a reporter assay the amount or activity of a reporter protein is the signal.
As for `COc1ccc(S(=O)(=O)N(Cc2ccc3c(c2)C=CC(C)(C)O3)c2ccccc2)cc1OC`, the IC50 is 0.6 µM.

The next test concerns LN-229. Briefly: Antitumor activity against human LN229 cells xenografted in nude mouse assessed as tumor growth inhibition at 60 mg/kg administered for 5 days in a week for 10 to 12 weeks relative to control. It counts as functional.
Conditions: not given
Consider `COc1ccc(S(=O)(=O)N(Cc2ccc3c(c2)C=CC(C)(C)O3)c2ccccc2)cc1OC`, for which the “fold change (FC)” value turned out to be 6.

Tested on in a further test: not listed separately
Briefly: Inhibition of HIF-1 pathway in human LN229 cells harboring HRE-AP assessed sa reduction in VEGF transcription pretreated for 1 hr under normoxic condition followed by 24 hrs incubation under hypoxic condition by HRE-[…] reporter gene assay. The class given is cell-based. The conditions noted are these: LN-229.
For the molecule `COc1ccc(S(=O)(=O)N(Cc2ccc3c(c2)C=CC(C)(C)O3)c2ccccc2)cc1OC`, the IC50 was determined as 0.59 µM. With `COc1ccc(S(=O)(=O)N(Cc2ccc3c(c2)C=CC(C)(C)O3)C2CCCC2)cc1OC`, the IC50 amounted to 0.5 µM.

Take `COc1ccc(S(=O)(=O)N(Cc2ccc3c(n2)C=CC(C)(C)O3)C2CCC2)cc1OC`: the IC50 is 0.28 µM. Still for that read-out and setting: in the case of `COc1ccc(S(=O)(=O)N(Cc2ccc3c(c2)CCC(C)(C)O3)c2ccccc2)cc1OC` it was 0.98 µM; in that of `COc1ccc(S(=O)(=O)N(Cc2ccc([N+](=O)[O-])cc2)C2CCC2)cc1OC`, over 5 µM.

`COc1ccc(S(=O)(=O)N(Cc2ccccc2[N+](=O)[O-])C2CCC2)cc1OC`: the IC50 is over 5 µM.

As for `CC1(C)C=Cc2nc(CN(C3CCC3)S(=O)(=O)c3ccc(CBr)cc3)ccc2O1`, the IC50 stood at 2.5 µM.

With `COc1ccc(S(=O)(=O)N(Cc2ccc3c(c2)C=CC(C)(C)O3)CC2COC2)cc1OC`, the IC50 is 4 µM. As to `CCOc1ccc(S(=O)(=O)N(Cc2ccc3c(c2)C=CC(C)(C)O3)C2CCC2)cc1`, the IC50 worked out at 4.4 µM. The same measure, in the same setting: in the case of `COc1ccc(S(=O)(=O)N(Cc2ccc3c(c2)C=CC(C)(C)O3)C2CCC2)cc1OC` it was 0.75 µM; in that of `COc1ccc(S(=O)(=O)N(Cc2cc3c(cc2Br)OC(C)(C)C=C3)c2ccccc2)cc1OC`, 3.1 µM. With `COc1ccc(S(=O)(=O)N(Cc2ccc3c(c2)CCO3)C2CCC2)cc1OC`, the IC50 stood at 3.5 µM. Still for that read-out and setting: next, `COc1ccc(S(=O)(=O)N(Cc2ccc3c(c2)CCC(C)(C)O3)C2CCC2)cc1OC`: 0.39 µM; `CC1(C)C=Cc2cc(CN(c3ccccc3)S(=O)(=O)c3ccc(OC(F)(F)F)cc3)ccc2O1`: over 5 µM; `COc1ccc(S(=O)(=O)N(Cc2ccc3c(n2)CCC(C)(C)O3)C2CCC2)cc1`: 1.2 µM. On the same count and under the same terms, in the case of `CCOc1ccc(S(=O)(=O)N(Cc2ccc3c(c2)C=CC(C)(C)O3)C2CCCC2)cc1` it was over 5 µM. For the molecule `COc1ccc(CCN(Cc2ccc3c(n2)C=CC(C)(C)O3)S(=O)(=O)c2ccc(OC)c(OC)c2)cc1OC`, the IC50 is over 5 µM. On to `COc1ccc(S(=O)(=O)N(Cc2ccc3c(c2)C=CC(C)(C)O3)C2CCCC2)c(OC)c1`, for which the IC50 stood at 1.5 µM.

On to `CC1(C)C=Cc2cc(CN(C3CCC3)S(=O)(=O)c3ccc(Br)cc3)ccc2O1`, for which the IC50 was over 5 µM.

With `COc1ccc(S(=O)(=O)N(Cc2ccc3c(c2)OCO3)c2ccccc2)cc1OC`, the concentration for half-maximal inhibition (IC50) was over 5 µM. Still for that read-out and setting: in the case of `COc1ccc(S(=O)(=O)N(Cc2ccc(CN3CCOCC3)cc2)C2CCC2)cc1OC` it was 1 µM; in that of `COc1ccc(S(=O)(=O)N(Cc2cc(C)c3c(c2)C=CC(C)(C)O3)c2ccccc2)cc1OC`, 3.2 µM; in that of `COc1ccc(CN(C2CCC2)S(=O)(=O)c2ccc(OC)c(OC)c2)cc1`, 3.9 µM. On to `CC1(C)C=Cc2nc(CN(C3CCC3)S(=O)(=O)c3ccc(OC(F)(F)F)cc3)ccc2O1`, for which the IC50 came to 4 µM. Consider `CC1(C)C=Cc2cc(CN(C3CCC3)S(=O)(=O)c3ccc(F)c(F)c3)ccc2O1`, for which the IC50 stood at 4.6 µM. In the case of `COc1cccc(S(=O)(=O)N(Cc2ccc3c(c2)C=CC(C)(C)O3)c2ccccc2)c1`, the 50% inhibitory concentration (IC50) amounted to 1 µM. In the case of `COc1ccc(CN(C2CCC2)S(=O)(=O)c2ccc(OC)c(OC)c2)c(OC)c1`, the IC50 was over 5 µM.

On to `COc1ccc(S(=O)(=O)N(Cc2ccc[nH]2)C2CCC2)cc1OC`, for which the IC50 was over 5 µM. On the same count and under the same terms, in the case of `COc1ccc(S(=O)(=O)N(Cc2ccc3c(c2)CCC(C)(C)O3)c2ccccc2)cc1` it was 3.2 µM; in that of `COc1ccc(S(=O)(=O)N(Cc2cccc3c2OC(C)(C)C=C3)c2ccccc2)cc1OC`, 1.8 µM; in that of `COc1ccc(S(=O)(=O)N(Cc2ccc3c(c2)CCC(C)(C)O3)CC2COC2)cc1OC`, over 5 µM.

Turning to `CC1(C)C=Cc2cc(CN(c3ccccc3)S(=O)(=O)c3ccc(C#N)cc3)ccc2O1`, the IC50 is over 5 µM. The same measure, in the same setting: next, `CC1(C)C=Cc2cc(CN(C3CCC3)S(=O)(=O)c3ccc(OC(F)(F)F)cc3)ccc2O1`: over 5 µM.

In the case of `COc1ccc(S(=O)(=O)N(Cc2ccc3nonc3c2)c2ccccc2)cc1OC`, the IC50 was over 5 µM. The same measure, in the same setting: in the case of `COc1ccc(S(=O)(=O)N(Cc2ccc3c(c2)OCO3)C2CCC2)cc1OC` it was 1.3 µM; in that of `COc1ccc(S(=O)(=O)N(Cc2ccccc2)C2CCC2)cc1OC`, over 5 µM.

Turning to `COc1ccc(S(=O)(=O)N(Cc2ccc3c(n2)CCC(C)(C)O3)C2CCC2)cc1OC`, the IC50 was 0.25 µM. The same measure, in the same setting: next, `CC1(C)C=Cc2cc(CN(C3CCCC3)S(=O)(=O)c3ccc(CBr)cc3)ccc2O1`: 3 µM; `COc1ccc(S(=O)(=O)N(Cc2cc3c(cc2C)OC(C)(C)C=C3)c2ccccc2)cc1OC`: 3.3 µM. As to `COc1ccc(S(=O)(=O)N(Cc2ccc3c(n2)C=CC(C)(C)O3)C2CCC2)cc1`, the IC50 came out at 1.8 µM. The same measure, in the same setting: in the case of `Cc1noc(C)c1S(=O)(=O)N(Cc1ccc2c(c1)C=CC(C)(C)O2)C1CCC1` it was over 5 µM; in that of `CC1(C)C=Cc2cc(CN(c3ccccc3)S(=O)(=O)c3ccc(F)c(F)c3)ccc2O1`, over 5 µM.

As a reminder, the IC50 is the concentration that inhibits the measured activity by half.
